Source: US8785486B2, “Imidazo[1,2-A]pyridine derivatives and their use as positive allosteric modulators of mGluR2 receptors” (Janssen Pharmaceuticals, Inc., priority 2007, dated 2014)

Experiments:
human mGluR2 receptor = molecular target: T1, human mGluR2 receptor (Homo sapiens, UniProt Q14416); assay: [35S]GTPγS binding assay (PAM assay) using membranes from cells transfected with the human mGluR2 receptor; assay type: biochemical; conditions: membranes of CHO cells with human mGluR2, glutamate at predetermined EC25 concentration, averages of duplicate values of 11-concentration response curves; for EC50: read-out: GTPγS - hR2 PAM pEC50 (converted)
T1 construct: expressed in transfected cells; host or cells: CHO cells
Description: The [^35S]GTPγS binding assay is a functional membrane-based assay used to study G-protein coupled receptor (GPCR) function whereby incorporation of a non-hydrolysable form of GTP, [^35S]GTPγS (guanosine 5′-triphosphate, labelled with […] ^35S), is measured.
CHO-cells were cultured to pre-confluence and stimulated with 5 mM butyrate for 24 hours, prior to washing in PBS, and then collection by scraping in homogenisation buffer (50 mM Tris-HCl buffer, pH 7.4, 4° C.). Cell lysates were homogenized briefly (15 s) using an ultra-turrax homogenizer. The homogenate was centrifuged at 23 500×g for 10 minutes and the supernatant discarded. The pellet was resuspended in 5 mM Tris-HCl, pH 7.4 and centrifuged again (30 000×g, 20 min, 4° C.). The final pellet was resuspended in 50 mM HEPES, pH 7.4 and stored at −80° C. in appropriate aliquots before use. Protein concentration was determined by the Bradford method (Bio-Rad, USA) with bovine serum albumin as standard.
Measurement of mGluR2 positive allosteric modulatory activity of test compounds in membranes containing human mGluR2 was performed using frozen membranes that were thawed and briefly homogenised prior to pre-incubation in 96-well microplates (15 μg/assay well, 30 minutes, 30° C.) in assay buffer (50 mM HEPES pH 7.4, 100 mM NaCl, 3 mM MgCl2, 50 μM GDP, 10 μg/ml saponin,) with increasing concentrations of positive allosteric modulator (from 0.3 nM to 50 μM) and either a minimal pre-determined concentration of glutamate (PAM assay), or no added glutamate. […] After addition of [^35S]GTPγS (0.1 nM, f.c.) to achieve a total reaction volume of 200 μl, microplates were shaken briefly and further incubated to allow [^35S]GTPγS incorporation on activation (30 minutes, 30° C.). The reaction was stopped by rapid vacuum filtration over glass-fibre filter plates (Unifilter 96-well GF/B filter plates, Perkin-Elmer, Downers Grove, USA) microplate using a 96-well plate cell harvester (Filtermate, Perkin-Elmer, USA), and then by washing three times with 300 μl of ice-cold wash buffer (Na2PO4.2H2O 10 mM, NaH2PO4.H2O 10 mM, pH=7.4). Filters were then air-dried, and 40 μl of liquid scintillation cocktail (Microscint-O) was added to each well, and membrane-bound [^35S]GTPγS was measured in a 96-well scintillation plate reader (Top-Count, Perkin-Elmer, USA). Non-specific [^35S]GTPγS binding is determined in the presence of cold 10 μM GTP. Each curve was performed at least once using duplicate sample per data point and at 11 concentrations.
The concentration-response curves of representative compounds of the present invention in the presence of added EC25 of mGluR2 agonist glutamate to determine positive allosteric modulation (PAM), were generated using the Prism GraphPad software (Graph Pad Inc, San Diego, USA). The curves were fitted to a four-parameter logistic equation (Y=Bottom+(Top-Bottom)/(1+10^((Log EC50−X)*Hill Slope) allowing determination of EC50 values. The EC50 is the concentration of a compound that causes a half-maximal potentiation of the glutamate response. This is calculated by subtracting the maximal responses of glutamate in presence of a fully saturating concentration of a positive allosteric modulator from the response of glutamate in absence of a positive allosteric modulator. The concentration producing the half-maximal effect is then calculated as EC50

T1 sequence (Q14416 19-872): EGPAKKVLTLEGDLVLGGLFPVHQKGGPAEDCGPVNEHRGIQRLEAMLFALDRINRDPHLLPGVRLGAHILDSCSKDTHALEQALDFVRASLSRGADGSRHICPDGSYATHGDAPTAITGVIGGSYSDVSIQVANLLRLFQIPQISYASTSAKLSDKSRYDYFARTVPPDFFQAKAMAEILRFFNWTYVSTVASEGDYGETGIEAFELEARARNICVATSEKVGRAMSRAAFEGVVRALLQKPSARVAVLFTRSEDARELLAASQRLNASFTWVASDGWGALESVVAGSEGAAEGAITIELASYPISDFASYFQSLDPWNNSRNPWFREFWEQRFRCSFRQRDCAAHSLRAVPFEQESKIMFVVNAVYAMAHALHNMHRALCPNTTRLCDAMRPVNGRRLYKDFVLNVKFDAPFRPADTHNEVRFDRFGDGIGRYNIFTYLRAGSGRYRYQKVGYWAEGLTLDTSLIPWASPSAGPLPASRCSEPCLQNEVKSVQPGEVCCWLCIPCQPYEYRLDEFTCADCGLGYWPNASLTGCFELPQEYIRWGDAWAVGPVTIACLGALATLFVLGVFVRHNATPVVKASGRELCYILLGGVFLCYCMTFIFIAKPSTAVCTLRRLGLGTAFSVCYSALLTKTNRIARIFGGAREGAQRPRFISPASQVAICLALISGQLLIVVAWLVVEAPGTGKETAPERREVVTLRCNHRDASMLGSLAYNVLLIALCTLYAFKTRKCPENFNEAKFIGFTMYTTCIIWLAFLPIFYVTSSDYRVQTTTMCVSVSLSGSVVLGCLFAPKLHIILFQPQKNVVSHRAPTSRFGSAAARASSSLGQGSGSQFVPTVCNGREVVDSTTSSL

Compound | GTPγS - hR2 PAM pEC50 (human mGluR2 receptor) | melting point | EC50 (human mGluR2 receptor)
N#Cc1c(N2CCN(c3ncccn3)CC2)ccn2c(CC(F)(F)F)cnc12 [Example 2, 7-(4-Pyrimidin-2-yl-piperazin-1-yl)-3-(2,2,2-trifluoro-ethyl)-imidazo[1,2-a]pyridine-8-carbonitrile] | 6.07 | 239 °C | 
CCCc1cnc2c(C#N)c(N3CCC(c4cccc(C(F)(F)F)c4)CC3)ccn12 [Example 5] |  | 126.8 to 131 °C | 107 nM
CCCc1cnc2c(C#N)c(N3CCC(c4ccccc4)CC3)ccn12 [Example 6] | 6.81 | 161 °C | 
CCCc1cnc2c(C#N)c(N3CCC(O)(c4ccccc4)CC3)ccn12 [Example 8] |  | 201.1 °C | 316 nM
CCCc1cnc2c(C#N)c(-c3ccc(Oc4cccnc4C)cc3)ccn12 [Example 9] |  | 159 °C | 316 nM
CCCc1cnc2c(C#N)c(-c3ccc(Oc4ccnc(C)c4)cc3)ccn12 [Example 11] |  | 181.8 °C | 427 nM
CCc1cnc2c(C#N)c(N3CCC(c4ccccc4)CC3)ccn12 [Example 12] | 6.30 | 150 °C | 
CCCc1cnc2c(C#N)c(N3CCN(c4nc(C)cc(C)n4)CC3)ccn12 [Example 14] | 6.19 | 194.4 °C | 
CCCc1cnc2c(C#N)c(N3CCN(c4ccccc4)CC3)ccn12 [Example 15] | 6.01 | 148.2 °C | 
CCc1cnc2c(C#N)c(N3CCC(O)(c4ccccc4)CC3)ccn12 [Example 16] |  | 265 °C | 1000 nM
CCc1cnc2c(C#N)c(N3CCN(c4nc(C)cc(C)n4)CC3)ccn12 [Example 19] | 5.64 | 231.4 °C | 
N#Cc1c(N2CCN(c3ccccc3)CC2)ccn2c(-c3ccccc3)cnc12 [Example 20] |  | 220 °C | 
CCCc1cnc2c(C#N)c(N3CCN(c4ncccn4)CC3)ccn12 [Example 22] |  | 176.4 °C | 
CCc1cnc2c(C#N)c(-c3ccc(Oc4ccnc(C)c4)c(F)c3)ccn12 [Example 25] |  | 197.6 °C | 
N#Cc1c(N2CCC(c3ccccc3)CC2)ccn2c(CCCC(F)(F)F)cnc12 [Example 28, 7-(4-Phenyl-piperidin-1-yl)-3-(4,4,4-trifluoro-butyl)-imidazo[1,2-a]pyridine-8-carbonitrile] |  | 128.5 °C | 132 nM
N#Cc1c(N2CCC(O)(c3ccccc3)CC2)ccn2c(CC(F)(F)F)cnc12 [Example 30] |  | 272.1 °C | 417 nM
N#Cc1c(N2CCC(c3ccccc3F)CC2)ccn2c(CC(F)(F)F)cnc12 [Example 31] |  | 139.3 °C | 81.3 nM
N#Cc1c(N2CCC(c3cccc(C(F)(F)F)c3)CC2)ccn2c(CC(F)(F)F)cnc12 [Example 32] |  | > 300 °C | 81.3 nM
N#Cc1c(N2CCC(c3ccc(F)cc3F)CC2)ccn2c(CC(F)(F)F)cnc12 [Example 33] |  | 186.5 °C | 61.7 nM
Cc1cc(C)nc(N2CCN(c3ccn4c(CC(F)(F)F)cnc4c3C#N)CC2)n1 [Example 34] | 6.35 | > 300 °C | 
FC(F)(F)Cc1cnc2c(Cl)c(CN3CCC(F)(c4ccccc4)CC3)ccn12 [Example 35] |  | 154.8 °C | 603 nM
FC(F)(F)Cc1cnc2c(Cl)c(CN3CCN(c4ncccn4)CC3)ccn12 [Example 36, 8-Chloro-7-(4-pyrimidin-2-yl-piperazin-1-ylmethyl)-3-(2,2,2-trifluoro-ethyl)imidazo[1,2-a]pyridine] |  | 161.4 °C | 
N#Cc1c(CN2CCC(O)(c3ccc(F)cc3)CC2)ccn2c(CC(F)(F)F)cnc12 [Example 38] |  | 181.2 °C | 
COc1cccc(C2(O)CCN(Cc3ccn4c(CC(F)(F)F)cnc4c3C#N)CC2)c1 [Example 43] |  | 196 °C | 
FC(F)(F)Cc1cnc2c(Cl)c(CN3CCC4(CC3)OCc3ccccc34)ccn12 [Example 123] |  | 164.2 °C | 
